Data taken from patent US5925618A, “Peptides useful as somatostatin antagonists” (American Cyanamid Company, priority 1998, dated 1999).
Square brackets hold non-standard residues; d marks the D form. Peptide text beside a SMILES is read from it.

Tests used:
Male Sprague-Dawley rats [1] = test: Serum growth hormone levels in anaesthetized rats (peptide 1, BIM 23014C); type: in vivo, rat
Description: Evaluation in anaesthetized rats. Male Sprague-Dawley rats are anaesthetized with Sagatal and fitted so as to allow efficient intravenous treatment with control and test compounds as well as frequent blood sampling. Blood samples are tested for growth hormone (GH) levels by radioimmunoassay. Thirty minutes after the initiation of blood sampling, rats are given 5 μg, 25 μg or 50 μg of peptide 1.

[2] = target: T1, S. cerevisiae (yeast) cells expressing SRIF receptors (Rattus norvegicus, UniProt P30680); test: Yeast bioassay for SRIF antagonist activity (LY364 cells growing in response to SRIF, zone of growth inhibition); type: cell-based; conditions: Sample type 4th iteration; 10 μL of 5 mg/mL on disk, SRIF 10 nM, read after 3 days
T1 construct: expressed in transfected cells; host or cells: S. cerevisiae strain LY364
T1 sequence (P30680 whole entry): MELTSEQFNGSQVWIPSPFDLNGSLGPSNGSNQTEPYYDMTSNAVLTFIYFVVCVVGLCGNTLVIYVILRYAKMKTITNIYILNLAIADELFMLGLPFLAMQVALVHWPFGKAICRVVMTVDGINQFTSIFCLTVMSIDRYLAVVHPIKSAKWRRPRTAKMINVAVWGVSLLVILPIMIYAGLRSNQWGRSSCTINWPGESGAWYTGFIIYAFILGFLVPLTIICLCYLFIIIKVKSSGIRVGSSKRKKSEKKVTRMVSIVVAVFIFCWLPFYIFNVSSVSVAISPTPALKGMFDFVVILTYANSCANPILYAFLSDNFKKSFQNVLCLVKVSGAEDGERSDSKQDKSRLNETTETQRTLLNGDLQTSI
Excerpt: SRIF antagonist assay using S. cerevisiae (yeast) cells expressing SRIF receptors that grow in response to SRIF
Agar plates containing LY364 cells that are growing in the presence of added SRIF are the basis for a sensitive SRIF antagonist assay, whereby zones of growth inhibition result from the addition of SRIF antagonists to the surface of the agar plate (see L. A. Price, et al., Molecular and Cellular Biology, 15, 6188-6195, 1995, incorporated herein by reference).
In this assay, LY364 cells are grown overnight in 2 mL of synthetic complete(SC) medium (3.4 g/L YNB without amino acids and ammonium sulfate, 10 g/L ammonium sulfate and 1.4 g/L CSM-ura-trp) with glucose (2%) and without uracil and tryptophan. These cells are washed and cultured for 4 to 8 hours in 5 mL of SC medium with lactate (3%) and without uracil and tryptophan, and finally grown overnight in 5 mL of SC medium with galactose (2%) and without uracil and tryptophan. Molten (50° C.) SC agar medium with galactose (2%) and without uracil, tryptophan and histidine is adjusted to pH 6.8 with KOH, mixed with 2×10^4 cells/mL and SRIF (S-14, 10 nM) and poured into square (20×20 cm) petri dishes. Sterile filter disks are placed on the surface of the agar, and saturated with 10 μL of water or DMSO containing 5 mg/mL test peptides. After three days, the plates display a uniform cloudy background of LY264 cells growing in response to the added SRIF. […] This zone is quantified by measuring its diameter (mm), which varies according to the potency of the SRIF antagonist. Those peptides or mixtures of peptides displaying the largest zones of inhibition are further characterized.
Values are compared among samples in the same experiment, as the degree of yeast growth varies somewhat from assay to assay. For the first five sample types, in which progressively less complex mixtures of peptides are found, this assay is the primary determining factor in choosing which samples form the basis of subsequent syntheses.
Plates are read after 3 days. Samples shown in Table I in bold type are chosen for further synthesis. In Table I, all amino acids are D-amino acids and dashes represent undefined amino acid residues.

Male Sprague-Dawley rats [3] = test: Spontaneous growth hormone secretory pulses in conscious rats; type: in vivo, rat; conditions: 300 μg/hr i.v. infusion for two hours
Description: Evaluation in conscious rats. Male Sprague-Dawley rats are fitted so as to allow efficient intravenous treatment with control and test compounds as well as frequent blood sampling. Blood samples are tested for growth hormone (GH) levels by radioimmunoassay. Blood samples are taken over a 12 hour period. At a 6 hour time point, peptide 1 is infused intravenously (300 μg/hr) into conscious, freely moving male rats for two hours. Control animals receive saline infusions over the same time period. […] It is known, SRIF is required for growth hormone pulsatility and that an SRIF antagonist abolishes said pulsatility (see Tannenbaum, G. S. and Ling, N., Endocrinology, 115, 1952-1957, 1984, incorporated herein by reference).

SMILES: CC[C@@H](C)[C@@H](NC(=O)[C@@H](Cc1ccccc1)NC(=O)[C@@H](Cc1c[nH]cn1)NC(C)=O)C(=O)N[C@H](CCCNC(=N)N)C(=O)N[C@H](Cc1c[nH]c2ccccc12)C(=O)N[C@H](Cc1ccccc1)C(N)=O [Peptide 1, h-f-i-r-w-f] (Ac-[dH][dF][dI][dR][dW][dF]-NH2)
- SGH (Male Sprague-Dawley rats [1]; 5 μg group, 90 min (time of 2nd peptide 1 dose, after BIM 23014C)): 2.4 ng/mL
- SGH (Male Sprague-Dawley rats [1]; 5 μg peptide 1 at 30 min, sample 35 min): 17.5 ng/mL
- SGH (Male Sprague-Dawley rats [1]; 5 μg peptide 1 at 30 min, sample 40 min): 14.9 ng/mL
- SGH (Male Sprague-Dawley rats [1]; 5 μg peptide 1 at 30 min, sample 45 min): 15.7 ng/mL
- SGH (Male Sprague-Dawley rats [1]; 5 μg peptide 1 group, i.v., 30 min (time of 1st peptide 1 dose)): 12.2 ng/mL
- serum GH levels after first dose (Male Sprague-Dawley rats [1]; 5 μg, 25 μg or 50 μg i.v. at 30 min): significant increase in serum GH levels resulting from the highest dose
- SGH (Male Sprague-Dawley rats [1]; 25 μg group, 90 min (time of 2nd peptide 1 dose, after BIM 23014C)): 5.1 ng/mL
- SGH (Male Sprague-Dawley rats [1]; 25 μg peptide 1 at 30 min, sample 35 min): 18.4 ng/mL
- SGH (Male Sprague-Dawley rats [1]; 25 μg peptide 1 at 30 min, sample 40 min): 17.5 ng/mL
- SGH (Male Sprague-Dawley rats [1]; 25 μg peptide 1 at 30 min, sample 45 min): 14.0 ng/mL
- SGH (Male Sprague-Dawley rats [1]; 25 μg peptide 1 group, i.v., 30 min (time of 1st peptide 1 dose)): 16.6 ng/mL
- SGH (Male Sprague-Dawley rats [1]; 50 μg group, 90 min (time of 2nd peptide 1 dose, after BIM 23014C)): 1.9 ng/mL
- SGH (Male Sprague-Dawley rats [1]; 50 μg peptide 1 at 30 min, sample 35 min): 50.2 ng/mL
- SGH (Male Sprague-Dawley rats [1]; 50 μg peptide 1 at 30 min, sample 40 min): 23.4 ng/mL
- SGH (Male Sprague-Dawley rats [1]; 50 μg peptide 1 at 30 min, sample 45 min): 15.5 ng/mL
- SGH (Male Sprague-Dawley rats [1]; 50 μg peptide 1 group, i.v., 30 min (time of 1st peptide 1 dose)): 19.7 ng/mL
- SGH (Male Sprague-Dawley rats [1]; 2nd dose 5 μg peptide 1 at 90 min after BIM 23014C, sample 95 min): 3.1 ng/mL
- SGH (Male Sprague-Dawley rats [1]; 2nd dose 5 μg peptide 1 at 90 min after BIM 23014C, sample 100 min): 1.7 ng/mL
- SGH (Male Sprague-Dawley rats [1]; 2nd dose 5 μg peptide 1 at 90 min after BIM 23014C, sample 105 min): 1.7 ng/mL
- SGH (Male Sprague-Dawley rats [1]; 2nd dose 5 μg peptide 1 at 90 min after BIM 23014C, sample 135 min): 1.1 ng/mL
- SGH (Male Sprague-Dawley rats [1]; 2nd dose 25 μg peptide 1 at 90 min after BIM 23014C, sample 95 min): 11.4 ng/mL
- SGH (Male Sprague-Dawley rats [1]; 2nd dose 25 μg peptide 1 at 90 min after BIM 23014C, sample 100 min): 10.5 ng/mL
- SGH (Male Sprague-Dawley rats [1]; 2nd dose 25 μg peptide 1 at 90 min after BIM 23014C, sample 105 min): 7.9 ng/mL
- SGH (Male Sprague-Dawley rats [1]; 2nd dose 25 μg peptide 1 at 90 min after BIM 23014C, sample 135 min): 5.2 ng/mL
- SGH (Male Sprague-Dawley rats [1]; 2nd dose 50 μg peptide 1 at 90 min after BIM 23014C, sample 95 min): 67.3 ng/mL
- SGH (Male Sprague-Dawley rats [1]; 2nd dose 50 μg peptide 1 at 90 min after BIM 23014C, sample 100 min): 31.8 ng/mL
- SGH (Male Sprague-Dawley rats [1]; 2nd dose 50 μg peptide 1 at 90 min after BIM 23014C, sample 105 min): 10.5 ng/mL
- SGH (Male Sprague-Dawley rats [1]; 2nd dose 50 μg peptide 1 at 90 min after BIM 23014C, sample 135 min): 2.6 ng/mL
- serum GH levels after second dose (Male Sprague-Dawley rats [1]; second dose 5 μg, 25 μg or 50 μg after BIM 23014C): even greater increase in serum GH levels from the highest dose
- Inhibition Zone [2]: 18 mm
- spontaneous growth hormone secretory pulses (Male Sprague-Dawley rats [3]): abolition of these pulses
